{"source": "paper PMC9374667", "about": "(Communications Biology, 2022)", "assay_type_in_all_cases": "in vivo", "key": {"[1]": {"test_system": "db/db mice", "assay": "Body weight of db/db mice during 35-day treatment", "procedure": "(§1) The lean wild type control and the db/db control mice were given equal vehicle volume (0.5% CMC-Na solution). All mice were monitored for food intake, body weight, and fasting blood glucose during the 35-day trial. Glucose tolerance test (GTT) and insulin resistance test (ITT) were performed at 4 and 5 weeks of treatment, respectively. Metabolic analysis was performed at 5 weeks of treatment. At the end of the study, blood samples were taken through the retroorbital venous sinus of mice, fat depots (brown fat, inguinal subcutaneous fat, epididymal fat, perirenal fat and mesenteric fat depot) were dissected, weighed, and immediately frozen in liquid nitrogen and stored at −80 °C until required. Weight of fat depots are expressed in percentage (fat depots weight /bodyweight * 100%)."}, "[2]": {"test_system": "db/db mice", "assay": "Serum CHO, TG, FFA, LDL-C, HDL-C and ADPN in the fasted state", "procedure": "The serum was collected by centrifugation at 3000 × g at 4 °C for 15 min and stored at −80 °C until analysis. TG, TC, LDL-C, HDL-C, and FFA were routinely tested on a Chemray 240 automatic biochemical analyzer (Chemray 240, Shenzhen, China). Serum levels of mouse adiponectin, interleukin6 (IL-6), tumor necrosis factor-α (TNF-α) were measured using commercial enzyme-linked immunosorbent assay (ELISA) kits (Nanjing Jiancheng Bioengineering Institute, Nanjing, China) and according to the manufacturer’s instructions. The levels of IL-6, TNF-α in 3T3-L1 adipocyte culture supernatant were also detected by ELISA."}, "[3]": {"test_system": "db/db mice", "assay": "Fat depots weight (BAT, iWAT, eWAT; percentage of body weight)", "procedure": "as §1"}, "[4]": {"test_system": "db/db mice", "assay": "Weekly fasting glucose levels of db/db mice", "settings": "150mg/kg", "procedure": "as §1"}, "[5]": {"settings": "150mg/kg, serum, individual animals"}, "[6]": {"settings": "db/db mice, vs vehicle, BJ 75 and 150 mg/kg, BBR 150 mg/kg, Ibu 150 mg/kg"}}, "note": "Values joined by “and” are separate entries in the source; they are usually repeats but may differ in a detail not shown here. Equal values may be shown once."}
{"molecule": "CC(C)Cc1ccc(C(C)C(=O)O)cc1", "note": "(centres unmarked) [Ibu, Ibuprofen, reference compound]", "values": [{"measurement": "Body weight", "setting": "[1]; 150mg/kg, day 1, individual animals, in g (unit assumed)", "value": "38.2 and 39.7"}, {"measurement": "Body weight", "setting": "[1]; 150mg/kg, day 4, individual animals, in g (unit assumed)", "value": "40.6 and 39.7"}, {"measurement": "Body weight", "setting": "[1]; 150mg/kg, day 19, individual animals, in g (unit assumed)", "value": 48.2}, {"measurement": "Body weight", "setting": "[1]; 150mg/kg, day 22, individual animals, in g (unit assumed)", "value": 50.5}, {"measurement": "Body weight", "setting": "[1]; 150mg/kg, day 25, individual animals, in g (unit assumed)", "value": "51.6 and 48.5"}, {"measurement": "Body weight", "setting": "[1]; 150mg/kg, day 28, individual animals, in g (unit assumed)", "value": "49.3 and 49.1 and 52.6 and 48.8 and 51.3"}, {"measurement": "Body weight", "setting": "[1]; 150mg/kg, day 31, individual animals, in g (unit assumed)", "value": "48.5 and 50.3 and 53 and 48.8 and 51.4"}, {"measurement": "Body weight", "setting": "[1]; 150mg/kg, day 34, individual animals, in g (unit assumed)", "value": "51.2 and 54.1 and 50.2 and 52.2"}, {"measurement": "Body weight gain (day 34 minus day 1)", "setting": "[1]; 150mg/kg, individual animals, in g (unit assumed)", "value": "12.5 and 9.1 and 9.9 and 9.2 and 12.8 and 12"}, {"measurement": "Body weight compared with vehicle", "setting": "[1]; db/db mice, 5 weeks, BJ 75 and 150 mg/kg, BBR 150 mg/kg, Ibu 150 mg/kg", "value": "did not observe any significant difference in body weight"}, {"measurement": "CHO", "setting": "[2]; [5]", "value": "4.079 mmol/L and 3.798 mmol/L and 4.949 mmol/L and 5.236 mmol/L and 4.727 mmol/L and 4.145 mmol/L"}, {"measurement": "FFA", "setting": "[2]; [5]", "value": "912.261 µmol/L and 870.411 µmol/L and 861.968 µmol/L and 886.564 µmol/L and 965.859 µmol/L and 978.341 µmol/L"}, {"measurement": "HDL-C", "setting": "[2]; [5]", "value": "1.7462 mmol/L and 1.7831 mmol/L and 1.9083 mmol/L and 2.0311 mmol/L"}, {"measurement": "LDL-C", "setting": "[2]; [5]", "value": "5.9624 mmol/L and 6.6672 mmol/L and 7.0004 mmol/L and 6.9602 mmol/L and 5.8098 mmol/L and 6.6236 mmol/L"}, {"measurement": "Mouse ADPN", "setting": "[2]; [5]", "value": "593.01 ng/mL and 440.43 ng/mL and 462.23 ng/mL and 556.39 ng/mL and 491.43 ng/mL and 431.93 ng/mL"}, {"measurement": "TG", "setting": "[2]; [5]", "value": "1.761 mmol/L and 1.861 mmol/L and 1.959 mmol/L and 1.91 mmol/L and 1.579 mmol/L and 1.279 mmol/L"}, {"measurement": "Serum levels of CHO, TG, FFA and LDL-C", "setting": "[2]; [6]", "value": "not significantly different"}, {"measurement": "Serum levels of HDL-C and adiponectin (ADPN)", "setting": "[2]; [6]", "value": "not significantly different"}, {"measurement": "Fat Depots Weight, BAT", "setting": "[3]; 150mg/kg, individual animals", "value": "1.27 g and 2.12 g and 1.64 g and 1.62 g and 1.65 g and 1.78 g"}, {"measurement": "Fat Depots Weight, eWAT", "setting": "[3]; 150mg/kg, individual animals", "value": "3.22 g and 3.09 g and 3.41 g and 3.43 g and 3.15 g and 3.78 g"}, {"measurement": "Fat Depots Weight, iWAT", "setting": "[3]; 150mg/kg, individual animals", "value": "3.71 g and 3.4 g and 3.36 g and 4.03 g and 3.78 g and 4.01 g"}, {"measurement": "Fat depots weight / body weight", "setting": "[3]; 150mg/kg, individual animals", "value": "19.7809% and 19.1502% and 20.6641% and 20.9797%"}, {"measurement": "Fat depots weight compared with vehicle", "setting": "[3]; db/db mice, BJ 75 and 150 mg/kg, BBR 150 mg/kg, Ibu 150 mg/kg", "value": "not significantly different"}, {"measurement": "Blood Glucose (Figure S9n)", "setting": "[4]; week 0, individual animals", "value": "16.0 mmol/L and 15.1 mmol/L and 15.0 mmol/L and 16.2 mmol/L and 11.3 mmol/L and 15.2 mmol/L"}, {"measurement": "Blood Glucose (Figure S9n)", "setting": "[4]; week 1, individual animals", "value": "16.3 mmol/L and 19.3 mmol/L and 21.7 mmol/L and 13.6 mmol/L and 13.3 mmol/L and 14.9 mmol/L"}, {"measurement": "Blood Glucose (Figure S9n)", "setting": "[4]; week 2, individual animals", "value": "20.7 mmol/L and 21.3 mmol/L and 19.0 mmol/L"}, {"measurement": "Blood Glucose (Figure S9n)", "setting": "[4]; week 3, individual animals", "value": "23.3 mmol/L and 18.9 mmol/L and 18.7 mmol/L and 22.0 mmol/L"}, {"measurement": "Blood Glucose (Figure S9n)", "setting": "[4]; week 4, individual animals", "value": "22.4 mmol/L and 22.3 mmol/L and 22.8 mmol/L"}, {"measurement": "Blood Glucose (Figure S9n)", "setting": "[4]; week 5, individual animals", "value": "23.6 mmol/L and 23.0 mmol/L"}]}
